35 compounds from patent US11072617B2, “Bicyclic sulfones and sulfoxides and methods of use thereof” (Genentech, Inc., priority 2017, dated 2021) can be followed below.

SMILES strings stand for the structures.

Sequence of human RIP1 kinase domain (2-375) (Q13546 2-375): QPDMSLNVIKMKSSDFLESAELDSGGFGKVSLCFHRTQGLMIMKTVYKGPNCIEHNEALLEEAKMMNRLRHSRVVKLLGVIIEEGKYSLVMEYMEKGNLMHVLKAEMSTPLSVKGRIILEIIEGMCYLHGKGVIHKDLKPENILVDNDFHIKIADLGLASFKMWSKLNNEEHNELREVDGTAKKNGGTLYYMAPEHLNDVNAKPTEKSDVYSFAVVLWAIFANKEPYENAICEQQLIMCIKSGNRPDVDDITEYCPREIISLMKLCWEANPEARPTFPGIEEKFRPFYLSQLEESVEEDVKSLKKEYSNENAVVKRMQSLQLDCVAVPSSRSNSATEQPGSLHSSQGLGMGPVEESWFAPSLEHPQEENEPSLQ

The target of this assay is human RIP1 kinase domain (2-375) (Homo sapiens (Human), UniProt Q13546). As to the kind of experiment: RIP1 kinase inhibition biochemical assay (Transcreener ADP, fluorescence polarization). The settings on record: Ki app from tight-binding Morrison equation; 50 nM enzyme, 50 uM ATP, 2 hours incubation. The method, boiled down:
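Baculovirus-expressed human RIP1 kinase domain (2-375), 50 nM, incubated 2 h with compounds in pH 7.5 Hepes, 30 mM MgCl2, 50 uM ATP, 0.5% DMSO. ADP detected by Transcreener fluorescence-polarization tracer displacement; Ki^app from Morrison tight-binding fit.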
In general terms: Fluorescence polarisation rises when a labelled molecule tumbles more slowly, as on binding a larger partner.
For the compound `[O-][S+](Cc1ccccc1)c1nc2n(n1)[C@H](c1ccccc1)C[C@@H]2F` (stereo partly drawn) [Example 20, (5S,7S)-2-benzylsulfinyl-7-fluoro-5-phenyl-6,7-dihydro-5H-pyrrolo[1,2-b][1,2,4]triazole], the Ki was found to be 24 nM.
With `[O-][S@@+](c1nc2n(n1)[C@H](c1ccccc1)C[C@@H]2F)C(F)F` [Example 21, (5S,7S)-2-[(S)-difluoromethylsulfinyl]-7-fluoro-5-phenyl-6,7-dihydro-5H-pyrrolo[1,2-b][1,2,4]triazole] the figure was 100 nM; with `[O-][S@+](c1nc2n(n1)[C@H](c1ccccc1)C[C@@H]2F)C(F)F` [Example 22, (5S,7S)-2-[(R)-difluoromethylsulfinyl]-7-fluoro-5-phenyl-6,7-dihydro-5H-pyrrolo[1,2-b][1,2,4]triazole], 3 nM.
Then `CC(C)(C)[S+]([O-])c1nc2n(n1)[C@H](c1ccccc1)C[C@@H]2F` (stereo partly drawn) [Example 24, (5S,7S)-2-(tert-butylsulfinyl)-7-fluoro-5-phenyl-6,7-dihydro-5H-pyrrolo[1,2-b][1,2,4]triazole], with 20 nM.
In the case of `[O-][S+](c1nc2n(n1)[C@H](c1ccccc1)C[C@@H]2F)C1CC1` (stereo partly drawn) [Example 27, (5S,7S)-2-cyclopropylsulfinyl-7-fluoro-5-phenyl-6,7-dihydro-5H-pyrrolo[1,2-b][1,2,4]triazole], the Ki amounted to 33 nM.
Then `[O-][S@@+](c1nc2n(n1)[C@H](c1ccccc1)C[C@@H]2F)C1CC1` [Example 28, (5S,7S)-2-[(R)-cyclopropylsulfinyl]-7-fluoro-5-phenyl-6,7-dihydro-5H-pyrrolo[1,2-b][1,2,4]triazole], with 89 nM; and `[O-][S@+](c1nc2n(n1)[C@H](c1ccccc1)C[C@@H]2F)C1CC1` [Example 29, (5S,7S)-2-[(S)-cyclopropylsulfinyl]-7-fluoro-5-phenyl-6,7-dihydro-5H-pyrrolo[1,2-b][1,2,4]triazole], with 4 nM; and `O=S(=O)(c1nc2n(n1)[C@H](c1ccccc1)C[C@@H]2F)C1CC1` [Example 30, (5S,7S)-2-cyclopropylsulfonyl-7-fluoro-5-phenyl-6,7-dihydro-5H-pyrrolo[1,2-b][1,2,4]triazole], with 4 nM.
`O=S(=O)(c1cc2n(n1)[C@H](c1ccccc1)C[C@@H]2F)C1CC1` [Example 31, (4S,6S)-2-cyclopropylsulfonyl-4-fluoro-6-phenyl-5,6-dihydro-4H-pyrrolo[1,2-b]pyrazole] returned a Ki of 10 nM.
Then `O=S(=O)(c1nc2n(n1)[C@H](c1ccccc1F)C[C@@H]2F)C1CC1` [Example 33, (5S,7S)-2-cyclopropylsulfonyl-7-fluoro-5-(2-fluorophenyl)-6,7-dihydro-5H-pyrrolo[1,2-b][1,2,4]triazole], with 5 nM.
With `[2H][C@H]1C[C@@H](c2ccccc2)n2nc(S(=O)(=O)C3CC3)nc21` [Example 41, (5S,7S)-2-cyclopropylsulfonyl-7-deuterio-5-phenyl-6,7-dihydro-5H-pyrrolo[1,2-b][1,2,4]triazole] the figure was 140 nM; with `[O-][S+](c1nc2n(n1)[C@H](c1ccccc1)C[C@@H]2F)C1CC(F)(F)C1` (stereo partly drawn) [Example 49, (5S,7S)-2-(3,3-difluorocyclobutyl)sulfinyl-7-fluoro-5-phenyl-6,7-dihydro-5H-pyrrolo[1,2-b][1,2,4]triazole], 12 nM; with `[O-][S+](c1nc2n(n1)[C@H](c1cccc(F)c1)C[C@@H]2F)C(F)F` (stereo partly drawn) [Example 54, (5S,7S)-2-((difluoromethyl)sulfinyl)-7-fluoro-5-(3-fluorophenyl)-6,7-dihydro-5H-pyrrolo[1,2-b][1,2,4]triazole], 17 nM.
Then `O=S(=O)(c1nc2n(n1)[C@H](c1cc(Cl)ccc1F)C[C@@H]2F)C(F)F` [Example 66, (5S,7S)-5-(5-chloro-2-fluorophenyl)-2-((difluoromethyl)sulfonyl)-7-fluoro-6,7-dihydro-5H-pyrrolo[1,2-b][1,2,4]triazole], with 69 nM.
On to `[O-][S@+](CF)c1nc2n(n1)[C@H](c1ccccc1)C[C@@H]2F` [Example 71], for which the Ki was found to be 90 nM.
Then `N#CC[S+]([O-])c1nc2n(n1)[C@H](c1ccccc1)C[C@@H]2F` (stereo partly drawn) [Example 102, 2-[[(5S,7S)-7-fluoro-5-phenyl-6,7-dihydro-5H-pyrrolo[1,2-b][1,2,4]triazol-2-yl]sulfinyl]acetonitrile], with 18 nM.
Then `CC(C)(C#N)[S+]([O-])c1nc2n(n1)[C@H](c1ccccc1)C[C@@H]2F` (stereo partly drawn) [Example 103, 2-[[(5S,7S)-7-fluoro-5-phenyl-6,7-dihydro-5H-pyrrolo[1,2-b][1,2,4]triazol-2-yl]sulfinyl]-2-methyl-propanenitrile], with 150 nM; and `C[S+]([O-])c1nc2n(n1)[C@H](c1ccccc1)C[C@@H]2F` (stereo partly drawn) [Example 105, (5S,7S)-7-fluoro-2-methylsulfinyl-5-phenyl-6,7-dihydro-5H-pyrrolo[1,2-b][1,2,4]triazole], with 46 nM.
Then `CC[S+]([O-])c1nc2n(n1)[C@H](c1ccccc1)C[C@@H]2F` (stereo partly drawn) [Example 107, (5S,7S)-2-ethylsulfinyl-7-fluoro-5-phenyl-6,7-dihydro-5H-pyrrolo[1,2-b][1,2,4]triazole], with 34 nM.
For `CC(C)[S+]([O-])c1nc2n(n1)[C@H](c1ccccc1)C[C@@H]2F` (stereo partly drawn) [Example 109, (5S,7S)-7-fluoro-2-isopropylsulfinyl-5-phenyl-6,7-dihydro-5H-pyrrolo[1,2-b][1,2,4]triazole], the Ki was found to be 19 nM.
With `[O-][S+](CC1CC1)c1nc2n(n1)[C@H](c1ccccc1)C[C@@H]2F` (stereo partly drawn) [Example 111, (5S,7S)-2-(cyclopropylmethylsulfinyl)-7-fluoro-5-phenyl-6,7-dihydro-5H-pyrrolo[1,2-b][1,2,4]triazole] the figure was 44 nM.
Then `[O-][S+](CC(F)(F)F)c1nc2n(n1)[C@H](c1ccccc1)C[C@@H]2F` (stereo partly drawn) [Example 113, (5S,7S)-7-fluoro-5-phenyl-2-(2,2,2-trifluoroethylsulfinyl)-6,7-dihydro-5H-pyrrolo[1,2-b][1,2,4]triazole], with 28 nM; and `COC[S+]([O-])c1nc2n(n1)[C@H](c1ccccc1)C[C@@H]2F` (stereo partly drawn) [Example 115, (5S,7S)-7-fluoro-2-(methoxymethylsulfinyl)-5-phenyl-6,7-dihydro-5H-pyrrolo[1,2-b][1,2,4]triazole], with 31 nM; and `[O-][S+](c1nc2n(n1)[C@H](c1ccccc1)C[C@@H]2F)C1CC1(F)F` (stereo partly drawn) [Example 117, (5S,7S)-2-((2,2-difluorocyclopropyl)sulfinyl)-7-fluoro-5-phenyl-6,7-dihydro-5H-pyrrolo[1,2-b][1,2,4]triazole], with 12 nM.
With `O=S(=O)(c1nc2n(n1)[C@H](c1cccc(F)c1F)C[C@@H]2F)[C@H]1CC1(F)F` [Example 121, (5S,7S)-2-(2,2-difluorocyclopropyl)sulfonyl-5-(2,3-difluorophenyl)-7-fluoro-6,7-dihydro-5H-pyrrolo[1,2-b][1,2,4]triazole] the figure was less than 5 nM.
Consider `O=S(=O)(c1nc2n(n1)[C@H](c1c(F)cccc1F)C[C@@H]2F)C1CC1(F)F` (stereo partly drawn) [Example 123, (5S,7S)-2-(2,2-difluorocyclopropyl)sulfonyl-5-(2,6-difluorophenyl)-7-fluoro-6,7-dihydro-5H-pyrrolo[1,2-b][1,2,4]triazole], for which the Ki is less than 5 nM.
`O=S(=O)(c1nc2n(n1)[C@H](c1ccccc1)C[C@@H]2F)[C@H]1CC1(F)F` [Example 130, (5S,7S)-2-(((S)-2,2-difluorocyclopropyl)sulfonyl)-7-fluoro-5-phenyl-6,7-dihydro-5H-pyrrolo[1,2-b][1,2,4]triazole]: the Ki amounted to 3 nM.
In turn, `[O-][S+](c1nc2n(n1)[C@H](c1ccccc1)C[C@@H]2F)C(F)(F)F` (stereo partly drawn) [Example 132, (5S,7S)-7-fluoro-5-phenyl-2-(trifluoromethylsulfinyl)-6,7-dihydro-5H-pyrrolo[1,2-b][1,2,4]triazole] displayed a Ki of 11 nM.
Then `[O-][S+](Cc1ccccn1)c1nc2n(n1)[C@H](c1ccccc1)C[C@@H]2F` (stereo partly drawn) [Example 147, (5S,7S)-7-fluoro-5-phenyl-2-((pyridin-2-ylmethyl)sulfinyl)-6,7-dihydro-5H-pyrrolo[1,2-b][1,2,4]triazole], with 140 nM.
With `[O-][S+](CC(F)F)c1nc2n(n1)[C@H](c1ccccc1)C[C@@H]2F` (stereo partly drawn) [Example 148, (5S,7S)-2-(2,2-difluoroethylsulfinyl)-7-fluoro-5-phenyl-6,7-dihydro-5H-pyrrolo[1,2-b][1,2,4]triazole] the figure was 7 nM.
Then `CC(F)S(=O)(=O)c1nc2n(n1)[C@H](c1ccccc1)C[C@@H]2F` (stereo partly drawn) [Example 158, (5S,7S)-7-fluoro-2-(1-fluoroethylsulfonyl)-5-phenyl-6,7-dihydro-5H-pyrrolo[1,2-b][1,2,4]triazole], with 13 nM; and `O=S(=O)(c1nc2n(n1)[C@H](c1ccccc1)C[C@@H]2F)C1CCOC1` (stereo partly drawn) [Example 166, (5S,7S)-7-fluoro-5-phenyl-2-tetrahydrofuran-3-ylsulfonyl-6,7-dihydro-5H-pyrrolo[1,2-b][1,2,4]triazole], with 43 nM.
The compound `CC1(S(=O)(=O)c2nc3n(n2)[C@H](c2ccccc2)C[C@@H]3F)CC1(F)F` (stereo partly drawn) [Example 167, (5S,7S)-2-((2,2-difluoro-1-methylcyclopropyl)sulfonyl)-7-fluoro-5-phenyl-6,7-dihydro-5H-pyrrolo[1,2-b][1,2,4]triazole] showed a Ki of 12 nM.
With `O=S(=O)(c1nc2n(n1)[C@H](c1ccccc1)C[C@@H]2F)C1CC12CC2` (stereo partly drawn) [Example 170, (5S,7S)-7-fluoro-5-phenyl-2-spiro[2.2]pentan-2-ylsulfonyl-6,7-dihydro-5H-pyrrolo[1,2-b][1,2,4]triazole] the figure was less than 5 nM; with `O=S(=O)(c1nc2n(n1)[C@H](c1ccccc1)C[C@@H]2F)[C@@H]1CCC1(F)F` [Example 171, (5S,7S)-7-fluoro-5-phenyl-2-[(1R)-2,2-difluorocyclobutyl]sulfonyl-6,7-dihydro-5H-pyrrolo[1,2-b][1,2,4]triazole], less than 5 nM.
